Experimental data: publication PMC11300601, “Zurletrectinib is a next-generation TRK inhibitor with strong intracranial activity against NTRK fusion-positive tumours with on-target resistance to first-generation agents” (British Journal of Cancer, 2024)

Assays:
[1] = system: IRC LMNA-NTRK1 TRKA G595R; experiment: Proliferation, clonogenic and western blot assays, primary IRC cell line with TRKA G595R; type: cell-based; details: primary human NTRK fusion-positive cell line with TRKA G595R
Excerpt: NTRK fusion-positive colorectal cancer cell lines IRC, Kor1, and KM12 were utilized. The IRC and the KM12 cell lines were obtained from Dr. Bardelli and cultured according to the described protocols. The Kor1 cell line was obtained from Lee et al. and cultured on laminin pre-treated plates in RPMI media supplemented with 10% Fetal Bovine Serum (FBS). All cell lines were authenticated by STR and periodically screened for the presence of mycoplasma. For the mutant models, two human-derived colorectal cancer cell lines (IRC) and two mouse-derived glioma models (NLS) were used. […] Sequencing of the double mutant cell line was performed using MSK-IMPACT [25]. IRC primary cell lines were cultured with DMEM/F12 50:50 Mix (Corning) supplemented with 10% FBS. NLS Bcan-Ntrk1 Trka G598R and Bcan-Ntrk1 Trka G670C single mutants as well as double mutants NLS Bcan-Ntrk1 Trka G598R/G670A and NLS Bcan-Ntrk1 Trka G598R/G670C isogenic models were established using CRISPR/Cas9 to knock-in TRKA solvent-front and xDFG mutations into tumor cells derived from a Bcan-Ntrk1-driven glioma mouse model. […]
CellTiter-Glo Cell Viability Assays (Promega) and crystal violet clonogenic assays were performed on primary NTRK fusion-positive colorectal cancer cell lines, mouse Ba/F3 cell lines and isogenic mouse glioma cell lines. […] Absorbance was read at 490 nm in accordance with Promega’s protocol. […]

[2] = molecular target: T1, TRKA G595R (Homo sapiens, UniProt P04629, G595R); experiment: In vitro HTRF kinase assay, recombinant TRKA G595R; type: biochemical
T1 construct: purchased SignalChem Biotech Inc (Richmond, BC, Canada)
T1 sequence (P04629 33-796 G595R): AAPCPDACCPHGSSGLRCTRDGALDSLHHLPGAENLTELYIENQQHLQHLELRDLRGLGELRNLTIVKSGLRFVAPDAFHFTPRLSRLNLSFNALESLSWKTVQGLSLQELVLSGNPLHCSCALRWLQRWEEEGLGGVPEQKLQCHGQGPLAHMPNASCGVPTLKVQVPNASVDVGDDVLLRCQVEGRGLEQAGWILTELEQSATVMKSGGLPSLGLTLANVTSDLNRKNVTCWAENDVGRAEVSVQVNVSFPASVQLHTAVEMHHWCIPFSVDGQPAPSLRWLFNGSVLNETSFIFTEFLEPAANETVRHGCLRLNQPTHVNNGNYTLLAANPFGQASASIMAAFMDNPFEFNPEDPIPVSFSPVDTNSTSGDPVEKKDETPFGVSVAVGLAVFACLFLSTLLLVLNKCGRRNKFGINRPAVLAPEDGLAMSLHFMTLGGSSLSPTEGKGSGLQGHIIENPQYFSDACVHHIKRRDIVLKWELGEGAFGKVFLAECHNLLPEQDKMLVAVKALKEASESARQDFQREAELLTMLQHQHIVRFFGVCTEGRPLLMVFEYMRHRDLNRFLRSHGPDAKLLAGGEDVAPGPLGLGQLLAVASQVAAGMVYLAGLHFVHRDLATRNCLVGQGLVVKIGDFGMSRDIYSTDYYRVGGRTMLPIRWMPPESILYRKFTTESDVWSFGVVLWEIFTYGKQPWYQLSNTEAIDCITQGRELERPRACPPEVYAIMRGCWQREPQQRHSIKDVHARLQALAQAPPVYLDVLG
Description: Recombinant kinases were purchased from SignalChem Biotech Inc (Richmond, BC, Canada). In vitro kinase assays were performed following the optimization of the HTRF Kinase Assay (Cisbio). […] ATP concentrations ranged from 1 to 10 µM based on internal optimization.

[3] = system: Bcan-Ntrk1 Trka G598R; experiment: Proliferation and clonogenic assays, mouse glioma cell line; type: cell-based
Excerpt: (§1) NTRK fusion-positive colorectal cancer cell lines IRC, Kor1, and KM12 were utilized. The IRC and the KM12 cell lines were obtained from Dr. Bardelli and cultured according to the described protocols. The Kor1 cell line was obtained from Lee et al. and cultured on laminin pre-treated plates in RPMI media supplemented with 10% Fetal Bovine Serum (FBS). All cell lines were authenticated by STR and periodically screened for the presence of mycoplasma. For the mutant models, two human-derived colorectal cancer cell lines (IRC) and two mouse-derived glioma models (NLS) were used. […] Sequencing of the double mutant cell line was performed using MSK-IMPACT [25]. IRC primary cell lines were cultured with DMEM/F12 50:50 Mix (Corning) supplemented with 10% FBS. NLS Bcan-Ntrk1 Trka G598R and Bcan-Ntrk1 Trka G670C single mutants as well as double mutants NLS Bcan-Ntrk1 Trka G598R/G670A and NLS Bcan-Ntrk1 Trka G598R/G670C isogenic models were established using CRISPR/Cas9 to knock-in TRKA solvent-front and xDFG mutations into tumor cells derived from a Bcan-Ntrk1-driven glioma mouse model. Trka G598R is the mouse ortholog to human TRKA G595R while Trka G670A and Trka G670C are the mouse ortholog to human TRKA G667A and TRKA G667C, respectively. Mouse p53 ^−/^− Bcan-Ntrk1 glioma cells were plated on laminin-coated plates and cultured with Neurocult Stem Cell Basal Media with Proliferation Supplements (Stem Cell Technologies). Ba/F3 cell lines stably expressing WT and mutant versions (i.e. G595R, G667C/A, V573M, F589L, F633L, F617L, G623R/E, G639R, G696A/C, G709C, V608D/M) of human TRKA, TRKB or TRKC were generated using either lentiviral transduction or standard transfection methods by a contract research organization (Kyinno, Beijing, China).
(§2) CellTiter-Glo Cell Viability Assays (Promega) and crystal violet clonogenic assays were performed on primary NTRK fusion-positive colorectal cancer cell lines, mouse Ba/F3 cell lines and isogenic mouse glioma cell lines. For the CellTiter-Glo assays, three biological replicates were performed, with each condition being assayed in triplicate determinations. Cells were seeded in a 96-well plate in the afternoon at optimal density. […] Plates were removed from the incubator 72 h later and CellTiter-Glo reagent was added. Absorbance was read at 490 nm in accordance with Promega’s protocol. Data is presented as a survival percentage on the y-axis (mean ± STDEV) normalized to the control DMSO-treated cells deemed 100% viable. Drug concentrations on the x-axis are represented as a base 10 logarithm (LOG). For the crystal violet assays, cells were seeded in a 24-well plate at optimal densities in the afternoon. […]

[4] = system: Bcan-Ntrk1 Trka G598R/G670A; experiment: as above; type: cell-based
Excerpt: as §1, §2

[5] = system: Bcan-Ntrk1 Trka G598R orthotopic gliomas; experiment: Intracranial efficacy, orthotopic mouse glioma model; type: in vivo, Athymic female mice; details: selitrectinib 30 mg/kg BID, repotrectinib and zurletrectinib 15 mg/kg BID
Description: (§3) In vivo brain orthotopic experiments were carried out at Memorial Sloan Kettering Cancer Center (MSKCC). Two mouse Bcan-Ntrk1 glioma models were used: single solvent front mutant Trka G598R (clone 1) and double xDFG mutant Trka G598R/G670A (clone 3). For each model, five arms were used with six mice per arm, totaling 60 mice. Athymic female mice (6–8 weeks old) were anesthetized with ketamine/xylazine and administered a preoperative dose of buprenorphine prior to stereotactic intracranial injection. Each mouse was injected with 200,000 cells in a volume of 2 uL 3 mm deep, 1 mm to the right of the sagittal suture (midline), and 1 mm posterior to the coronal suture behind the bregma with the aim being to target the right lateral ventricle. One week post cell implantation, the mice were randomized into different treatment groups and treatments began. […] Mouse weights were monitored twice a week and survival was recorded and graphed on GraphPad Prism 9 [31, 32].
(§4) Statistical analyses were conducted using GraphPad Prism 9 (GraphPad Software Inc.). For CellTiter-Glo assays, raw data obtained were normalized to the DMSO control utilizing Microsoft Excel. GraphPad Prism 9 was used to determine the 50% growth inhibition concentration (IC50) using non-linear regression and curve fitting. Data is presented as the mean ± standard deviation (STDEV) of all replicates. Measurements were assessed for normal distribution and homogeneity of variance using appropriate tests and were analyzed using analysis of variance or T-Tests, and nonparametric tests were used for non-normal distributed data. Animal studies utilized five arms with six or eight mice per arm. A Kaplan–Meier test was used to assess lifespan characteristics and for comparison between groups. Median survivals were obtained using GraphPad Prism 9. Sample size was based on statistical power analysis to ensure sufficient capability to detect a pre-specified effect size. We assumed a moderate effect size, with an alpha level set at 0.05, and a power (1-β) set at 0.80. P values were calculated using a Log-rank or Mantel–Cox test using GraphPad Prism 9. A P value < 0.05 was considered statistically significant.

[6] = system: Bcan-Ntrk1 Trka G598R/G670A orthotopic gliomas; experiment: as above; type: in vivo, Athymic female mice; details: selitrectinib 30 mg/kg BID, repotrectinib and zurletrectinib 15 mg/kg BID
Description: as §3, §4

| Compound | Inhibition of growth and TRKA-mediated signaling [1] | Activity against TRKA G595R recombinant kinase [2] | Activity against mouse glioma cell line [3] | Activity against mouse glioma cell line [4] | Survival of mice, comparison between next-generation agents [5] | Median survival [6] [days] |
| --- | --- | --- | --- | --- | --- | --- |
| C[C@@H]1CCc2ncc(F)cc2[C@H]2CCCN2c2ccn3ncc(c3n2)C(=O)N1 [Selitrectinib, selitrectinib] | able to inhibit the growth and TRKA-mediated signaling | active in the low nanomolar range | highly active | highly active | no significant difference in the survival | 41.5 |
| zurletrectinib | able to inhibit the growth and TRKA-mediated signaling | active in the low nanomolar range | highly active | highly active | no significant difference in the survival | 104 |
